Measurements: patent US20230142913A1, “TRICYCLIC HETEROARENES, PHARMACEUTICAL COMPOSITIONS CONTAINING THE SAME, AND METHODS OF USING THE SAME” (priority 2021, published 2023)
pIC50: −log10 of the molar value.

Biological target: T1, recombinant human Myt1 (full length PKMYT1) (Homo sapiens, UniProt Q99640)
T1 sequence (Q99640 1-499): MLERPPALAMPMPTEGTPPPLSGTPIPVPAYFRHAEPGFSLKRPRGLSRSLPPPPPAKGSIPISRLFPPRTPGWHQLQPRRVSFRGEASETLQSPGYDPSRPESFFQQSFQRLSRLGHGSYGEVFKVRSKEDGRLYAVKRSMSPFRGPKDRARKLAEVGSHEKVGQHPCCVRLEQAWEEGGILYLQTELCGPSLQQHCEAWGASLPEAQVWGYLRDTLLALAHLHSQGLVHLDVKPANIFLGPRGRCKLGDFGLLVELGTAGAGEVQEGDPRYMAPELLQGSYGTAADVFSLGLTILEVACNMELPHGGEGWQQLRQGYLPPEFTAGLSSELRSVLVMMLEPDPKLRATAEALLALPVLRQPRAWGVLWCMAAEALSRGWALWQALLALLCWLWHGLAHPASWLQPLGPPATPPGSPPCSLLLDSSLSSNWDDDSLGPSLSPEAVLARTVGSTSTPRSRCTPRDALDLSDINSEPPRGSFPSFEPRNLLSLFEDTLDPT
Assay: Recombinant human Myt1 kinase assay (ADP-Glo)
Details: not given

Row | pIC50 | Compound
1 | > 8.00 | Cc1ccc(O)c(C)c1-n1c(N)c(C(N)=O)c2nc3cc(-c4cn[nH]c4)ccc3nc21 [Compound 54]
2 | 7.01 | CCc1c(O)ccc(C)c1-n1c(N)c(C(N)=O)c2nc3ccccc3nc21 [Compound 12]
3 | 7.80 | Cc1ccc(O)c(C)c1-n1c(N)c(C(N)=O)c2nc3c(C#CC4CC4)cccc3nc21 [Compound 33]
4 | 6.37 | CCc1ccc(O)c(C)c1-n1c(N)c(C(N)=O)c2nc3ccccc3nc21 [Compound 13]
5 | 7.77 | Cc1ccc(O)c(C)c1-n1c(N)c(C(N)=O)c2nc3c(-c4ccccc4)cccc3nc21 [Compound 36]
6 | > 8.00 | Cc1ccc(O)c(C)c1-n1c(N)c(C(N)=O)c2nc3c(-c4cccn4C)cccc3nc21 [Compound 35]
7 | > 8.00 | Cc1ccc(O)c(C)c1-n1c(N)c(C(N)=O)c2nc3cc(-c4ccccc4)ccc3nc21 [Compound 47]
8 | > 8.00 | Cc1ccc(O)c(C)c1-n1c(N)c(C(N)=O)c2nc3c(F)ccc(F)c3nc21 [Compound 28]
9 | 7.92 | Cc1ccc(O)c(C)c1-n1c(N)c(C(N)=O)c2nc3c(C4=CCOCC4)cccc3nc21 [Compound 34]
10 | 7.96 | Cc1ccc(O)c(C)c1-n1c(N)c(C(N)=O)c2nc3cc(-c4cccc(C#N)c4)ccc3nc21 [Compound 48]

Second part, the compound before the results:

Row | Compound | pIC50
11 | Cc1ccc(O)c(C)c1-n1cc(C(N)=O)c2c3ccccc3cnc21 [Compound 88, 3-(3-hydroxy-2,6-dimethylphenyl)-3H-pyrrolo[2,3-c]isoquinoline-1-carboxamide] | 7.49
12 | Cc1ccc(O)c(C)c1-n1c(N)c(C(N)=O)c2nc3cc(CCCO)ccc3nc21 [Compound 46, 2-amino-1-(3-hydroxy-2,6-dimethyl-phenyl)-6-(3-hydroxypropyl)pyrrolo[2,3-b]quinoxaline-3-carboxamide] | > 8.00
13 | Cc1ccc(O)c(C)c1-n1c(N)c(C(N)=O)c2nc3cc(C#CC4CC4)ccc3nc21 [Compound 40] | > 8.00
14 | NC(=O)c1c(N)n(-c2cc(O)ccc2Cl)c2nc3ccccc3nc12 [Compound 4] | 6.89
15 | Cc1ccc(O)c(C)c1-n1c(N)c(C(N)=O)c2nc3ccc(C#CCO)cc3nc21 [Compound 58] | 7.96
16 | Cc1ccc(O)c(C)c1-n1c(N)c(C(N)=O)c2nc3cc(C#Cc4cnccn4)ccc3nc21 [Compound 43] | > 8.00
17 | Cc1ccc(O)cc1-n1c(N)c(C(N)=O)c2nc3nc(N)sc3nc21 [Compound 16, 2,6-diamino-5-(5-hydroxy-2-methylphenyl)-5H-pyrrolo[2,3-b]thiazolo[4,5-e]pyrazine-7-carboxamide] | 7.03
18 | Cc1c(O)ccc(C2CC2)c1-n1c(N)c(C(N)=O)c2nc3ccccc3nc21 [Compound 85] | 4.31
19 | NC(=O)c1c(N)n(-c2cccc3[nH]nc(F)c23)c2nc3ccccc3nc12 [Compound 9] | 6.55
20 | Cc1ccc(O)cc1-n1c(N)c(C(=O)NC2CC2)c2nc3ccccc3nc21 [Compound 20, 2-amino-N-cyclopropyl-1-(5-hydroxy-2-methylphenyl)-1H-pyrrolo[2,3-b]quinoxaline-3-carboxamide] | 5.12
21 | C=C(C)c1ccc2nc3c(C(N)=O)c(N)n(-c4c(C)ccc(O)c4C)c3nc2c1 [Compound 68, 2-amino-1-(3-hydroxy-2,6-dimethyl-phenyl)-7-isopropenyl-pyrrolo[3,2-b]quinoxaline-3-carboxamide or either 2-amino-1-(3-hydroxy-2,6-dimethyl-phenyl)-6-isopropenyl-pyrrolo[3,2-b]quinoxaline-3-carboxamide] | 7.89
22 | Cc1ccc(O)cc1-n1cc(C(N)=O)c2nc3ccccc3nc21 [Compound 23] | 6.49
23 | Cc1ccc(O)c(C)c1-n1c(N)c(C(N)=O)c2nc3c(nc21)CCCC3 [Compound 84] | 7.96
24 | Cc1ccc(O)c(C)c1-n1c(N)c(C(N)=O)c2nc3cc(C#CCN4CCOCC4)ccc3nc21 [Compound 44] | > 8.00
25 | Cc1ccc(O)c(C)c1-n1c(N)c(C(N)=O)c2nc3cc(-c4ccc(N5CCN(CCO)CC5)cc4)ccc3nc21 [Compound 52] | > 8.00
26 | Cc1ccc(O)c(C)c1-n1c(N)c(C(N)=O)c2nc3cc(C#CCO)ccc3nc21 [Compound 45, 2-amino-1-(3-hydroxy-2,6-dimethyl-phenyl)-6-(3-hydroxyprop-1-ynyl)pyrrolo[2,3-b]quinoxaline-3-carboxamide] | > 8.00
27 | Cc1ccc(O)c(C)c1-n1c(N)c(C(N)=O)c2nc3cc(C4=CCOCC4)ccc3nc21 [Compound 51] | > 8.00
28 | Cc1ccc(O)c(C2CC2)c1-n1c(N)c(C(N)=O)c2nc3ccccc3nc21 [Compound 11] | 5.66
29 | Cc1ccc(O)c(C)c1-n1cc(C(N)=O)c2cc3c(cnn3C)nc21 [Compound 89, 5-(3-hydroxy-2,6-dimethylphenyl)-1-methyl-1,5-dihydropyrazolo[4,3-b]pyrrolo[3,2-e]pyridine-7-carboxamide] | 7.51
30 | NC(=O)c1c(N)n(-c2cccc3[nH]nc(Cl)c23)c2nc3ccccc3nc12 [Compound 8] | 6.54

Same assay, conditions: Myt1 IC50 (nM), recombinant human Myt1 18 nM, ATP 10 μM, ADP-Glo luminescence

Row | IC50 [nM] | Compound
31 | < 10 | Cc1ccc(O)c(C)c1-n1c(N)c(C(N)=O)c2nc3cccc(C4=CCCC4)c3nc21 [Compound 62]
32 | < 10 | Cc1ccc(O)c(C)c1-n1c(N)c(C(N)=O)c2nc3cc(Br)ccc3nc21 [Compound 38, 2-amino-6-bromo-1-(3-hydroxy-2,6-dimethyl-phenyl)pyrrolo[2,3-b]quinoxaline-3-carboxamide]
33 | < 10 | Cc1ccc(O)c(C)c1-n1c(N)c(C(N)=O)c2nc3cccc(-c4ccnn4C)c3nc21 [Compound 61]
34 | < 10 | Cc1ccc(O)c(C)c1-n1c(N)c(C(N)=O)c2nc3cccc(Br)c3nc21 [Compound 59, 2-amino-8-bromo-1-(3-hydroxy-2,6-dimethyl-phenyl)pyrrolo[3,2-b]quinoxaline-3-carboxamide]

Same assay, conditions: read-out: Myt1 IC50; recombinant human Myt1 18 nM, ATP 10 μM, ADP-Glo luminescence

Row | Compound | pIC50
35 | 2-amino-1-(3-hydroxy-2,6-dimethylphenyl)-1H-pyrido[2,3-b]pyrrolo[2,3-e]pyrazine-3-carboxamide or 2-amino-1-(3-hydroxy-2,6-dimethylphenyl)-1H-pyrido[2,3-b]pyrrolo[3,2-e]pyrazine-3-carboxamide [Compound 82] | 7.68
36 | 2-amino-7-bromo-1-(3-hydroxy-2,6-dimethylphenyl)-1H-pyrido[2,3-b]pyrrolo[2,3-e]pyrazine-3-carboxamide or 2-amino-6-bromo-1-(3-hydroxy-2,6-dimethylphenyl)-1H-pyrido[2,3-b]pyrrolo[3,2-e]pyrazine-3-carboxamide [Compound 79] | 7.52
37 | 2-amino-1-(3-hydroxy-2,6-dimethyl-phenyl)-7-(morpholine-4-carbonyl)pyrrolo[3,2-b]quinoxaline-3-carboxamide or 2-amino-1-(3-hydroxy-2,6-dimethyl-phenyl)-6-(morpholine-4-carbonyl)pyrrolo[3,2-b]quinoxaline-3-carboxamide [Compound 66] | 7.89
38 | 2-amino-1-(3-hydroxy-2,6-dimethyl-phenyl)-7-(1-hydroxy-1-methyl-ethyl)pyrrolo[3,2-b]quinoxaline-3-carboxamide or 2-amino-1-(3-hydroxy-2,6-dimethyl-phenyl)-6-(1-hydroxy-1-methyl-ethyl)pyrrolo[3,2-b]quinoxaline-3-carboxamide [Compound 67] | 8.00
